“Also recorded” adds a separate entry of the source.
Assays:
CTL response = system: CTL response; parameters: species or system HLA-A2.1/K^b-H-2^bxs transgenic mice; conditions: mouse; for Immunogenicity In Vivo (IFA): No. CTL-Positive Cultures: sc; for immunogenicity of the peptide administered in IFA (in words): in vivo
[1] = system: mouse and human MHC class II haplotypes; conditions: wide range of mouse and human MHC class II haplotypes; cited from earlier work
[2] = mouse, in vivo; cited from earlier work

| Compound | Immunogenicity In Vivo (IFA): CTL Response (Geo. Mean ΔLU) (CTL response) | Immunogenicity In Vivo (IFA): No. CTL-Positive Cultures (CTL response) | MHC binding affinity (in words) [1] | immunogenicity in H-2^b mice (in words) [2] | immunogenicity of the peptide administered in IFA (in words) (CTL response) |
| --- | --- | --- | --- | --- | --- |
| CC(C)C[C@H](NC(=O)[C@@H](NC(=O)[C@@H](N)CO)[C@@H](C)O)C(=O)N1CCC[C@H]1C(=O)N[C@@H](CCC(=O)O)C(=O)N[C@H](C(=O)N[C@H](C(=O)N[C@H](C(=O)N[C@H](C(=O)N[C@@H](CCCNC(=N)N)C(=O)N[C@@H](CCCNC(=N)N)C(=O)O)C(C)C)C(C)C)[C@@H](C)O)[C@@H](C)O [HBV Core 141] | 12.1 (2.6) ΔLU | 6/6 |  |  |  |
| AKFVAAWTLKAAA [PADRE] |  |  | high MHC binding affinity | highly immunogenic |  |
| CC(C)[C@H](NC(=O)[C@@H](N)[C@@H](C)O)C(=O)N[C@@H](Cc1ccc(O)cc1)C(=O)N[C@@H](Cc1ccc(O)cc1)C(=O)NCC(=O)N[C@H](C(=O)N1CCC[C@H]1C(=O)N[C@H](C(=O)N[C@@H](Cc1c[nH]c2ccccc12)C(=O)N[C@@H](CCCCN)C(=O)O)C(C)C)C(C)C [HIV Env 49] | 13.4 (3.1) ΔLU | 28/33 |  |  |  |
| CC[C@H](C)[C@H](NC(=O)CNC(=O)[C@H](C)NC(=O)[C@H](CCCCN)NC(=O)[C@H](Cc1c[nH]c2ccccc12)NC(=O)[C@H](CC(C)C)NC(=O)[C@@H](NC(=O)[C@@H](N)Cc1c[nH]cn1)[C@@H](C)O)C(=O)N[C@@H](CC(C)C)C(=O)N[C@@H](Cc1ccc(O)cc1)C(=O)N[C@@H](CCCCN)C(=O)O [HBV Pol 149] | 13.1 (1.2) ΔLU | 6/6 |  |  |  |
| CSCC[C@H](NC(=O)[C@@H](N)Cc1ccc(O)cc1)C(=O)N[C@@H](CC(=O)O)C(=O)N[C@@H](CC(=O)O)C(=O)N[C@H](C(=O)N[C@H](C(=O)N[C@@H](CC(C)C)C(=O)NCC(=O)N[C@@H](C)C(=O)O)C(C)C)C(C)C [HBV Pol 55 1-A] |  | 0/6 |  |  | weakly or nonimmunogenic; also recorded: essentially nonimmunogenic |
| CC[C@H](C)[C@H](N)C(=O)N[C@@H](CC(C)C)C(=O)N[C@@H](CCCCN)C(=O)N[C@@H](CCC(=O)O)C(=O)N1CCC[C@H]1C(=O)N[C@H](C(=O)N[C@@H](Cc1c[nH]cn1)C(=O)NCC(=O)N[C@H](C(=O)O)C(C)C)C(C)C [HIV Pol 476] | 15.2 (2.9) ΔLU | 2/5 |  |  |  |
| CC(C)C[C@H](NC(=O)[C@H](CO)NC(=O)[C@H](CC(C)C)NC(=O)[C@@H](N)Cc1c[nH]c2ccccc12)C(=O)N[C@@H](CC(C)C)C(=O)N[C@H](C(=O)N1CCC[C@H]1C(=O)N[C@@H](Cc1ccccc1)C(=O)N[C@H](C(=O)O)C(C)C)C(C)C [HBV Env 335] | 5.3 (1.6) ΔLU | 4/6 |  |  | immunogenic |
